Where two headings read alike, the source gives them in different places.
Columns and labels:
PANC-1 cells [1] = experiment: Transwell migration assay; assay type: cell-based, human; details: PANC-1, transwell, 18 hours
Experimental: (§1) Chemotaxis experiments with human HepG2Huh7, or PANC-1 cells were assayed by using transwells (Millipore). The cells to be analyzed (5×10^4 cells/well) were seeded in the upper chambers of the 24-well plate in 400 μL serum-free medium. FBS (10%) was used as the chemoattractant with or without different concentrations of the test compound (e.g., ACK900, ACK901, ACK902) in the lower chamber, and the plate was incubated under standard conditions. After incubation for 18 hours, the media in the upper chambers were aspirated and washed with phosphate-buffered saline (PBS) twice. Both non-migrated and migrated cells were fixed with 4% paraformaldehyde (PFA) for 30 minutes at room temperature, stained with 2% crystal violet solution. The non-invading cells were removed from the upper surface of the insert membrane with a cotton swab. The images were taken using an imaging reader (Cytation 5, BioTek, VT, U.S.A.) and analyzed using NIH ImageJ software. Percent in the results represent percent of initial number of cells in the migrating and nonmigrating Cell fractions.

Huh7 cells [2] = experiment: Transwell migration assay; assay type: cell-based, human; details: 18 hours
Experimental: as §1

[3] = Serum biochemistry assay in Huh7 xenograft mice; assay type: in vivo, NOD-SCID mice; details: 30 mg/kg i.p., twice a week; for ALT / AST / BUN / CRE / TBIL: serum
Experimental: All blood specimens were collected in tubes and were left at 25° C. for 30 min to clot and centrifuged for 10 min at 1200 g. The concentrations of the following biochemical serum analytes collected were measured with FUJI DRI-CHEM 500i analyzer (FUJIFILM Corp., Tokyo, Japan) using the manufacturer's reagents and according to the manufacturer's instructions: Alanine Aminotransferase ALT), Aspartate Aminotransferase (AST), Blood Urea Nitrogen (BUN), Creatinine (CRE) and Total Bilirubin (TBIL).
(§2) HCC xenografts were established in 5-6 weeks old NOD-SCID mice by subcutaneous inoculation of about 5×10^6 Huh7 cells suspended in 50 μL PBS+50 μL, Matrigel (Corning, 394230) in the left and right flanks of each mouse. After one week of inoculation, tumors were palpable and the mice were assigned randomly to 1 of 4 treatment groups. Group 1 (vehicle control group, n=6) mice only received a vehicle solution containing Kolliphor EL (Sigma Aldrich, C5135), 99.9% ethanol and water in a ratio of 1:1:6. Groups 2, 3, 4 and 5 mice were intraperitoneally injected with the test compound (e.g., compound ACK900, ACK901, or ACK902) (30 mg/kg, ip, n=7/group) or sorafenib (30 mg/kg, ip, n=6/group), twice per week for 25 days. The tumor volume was calculated by the formula of a ratioinal ellipsoid: [0.5236×short axis) m1^2×(long axis)m^2], and the tumor volume was measured twice per week. All mice were sacrificed at 27 days after the treatment started. Tumor tissues were isolated, photographed and weighted.
In vivo tumor growth inhibition studies in human Huh7 xenograft rodents were performed in accordance with procedures as described in the “Material and Method” section. Xenograft tumors were generated by implanting Huh7 cells (5×10^6) subcutaneously into the left and right flanks of each NOD-SCID mouse. Starting on the 7th day after the inoculation of Huh7 cells, the mice were injected with ACK900, ACK901, ACK902 or sorafenib intraperitoneally (i.p.) at a dose of 30 mg/kg and twice a week for 34 days.

H1975 cells = experiment: Anti-proliferative activity assay (CellTiter-Glo); assay type: cell-based, human; details: 48 h
Experimental: (§3) Human liver cancer HepG2 cells and Huh7 cells, breast cancer MDA-MB-231 cells, pancreatic cancer PANC-1 cells, and non-small cell lung (NSCL) cancer H1975 cells were maintained in Dulbecco's Modified Eagle Medium supplemented containing 10% fetal bovine serum (FBS), 100 units/ml penicillin and […] streptomycin in 37° C. incubator with 5% CO2.
(§4) Anti-proliferative activity of HepG2, Huh7 or PANC-1 cells was determined by 3-(4,5-dimethylthiazol-2-yl)-2,5-diphenyltetrazolium bromide (MTT) assay, while that of H1975 or MDA-MB-231 cells was determined by luminescent assay with the aid of commercial kit CellTiter-Glo® (Promega).
(§5) For H1975 and MDA-MB-231, cells were respectively seeded at 5×10^3 cells/well in 96-well plates and maintained for 14-16 hours. Cells were treated with dimethylsulfoxide (DMSO) or test compounds in varied concentrations for 48 h. Cell viability was monitored using Cell-TiterGlo (Promega), a kit that measures the quantity of ATP present in the cell culture, an indicator of metabolically active cells. The IC50 values of death cell lines were calculated accordingly.

MDA-MB-231 cells = experiment: Anti-proliferative activity assay (CellTiter-Glo); assay type: cell-based, human
Experimental: as §3, §4, §5

PANC-1 cells [4] = experiment: Transwell invasion assay; assay type: cell-based, human; details: PANC-1, transwell
Experimental: as §1

Huh7 cells [5] = experiment: Transwell invasion assay; assay type: cell-based, human
Experimental: as §1

[6] = tested on: all cancer cell lines (HepG2, Huh7, PANC-1, H1975, MDA-MB-231); experiment: Anti-proliferative activity, pooled statement over all cancer cell lines; assay type: cell-based, human; details: read-out: half maximum inhibitory concentration (IC50), range in all cancer cell lines
Experimental: as §4
(§6) Cancer cells including HepG2, Huh7 and PANC-1 cells were respectively seeded at 10^4, 4×10^3, and 5×10^3 cells/well in 96-well plates and maintained for 14-16 hours. Cells were treated with dimethylsulfoxide (DMSO) or test compounds in varied concentrations for 72 h. Cells were then washed with PBS twice, added a medium containing 3-(4,5-dimethylthiazol-2-yl)-2,5-diphenyltetrazolium bromide (MTT) at a final concentration of 0.5 mg/mL, and incubated for 4 h at 37° C. in a humidified incubator containing 5% CO2 in air. Cells having functional succinate dehydrogenase of mithchondria would convert MTT to formazan. Then, the medium was replaced with 100 μL of DMSO for 30 min at room temperature, and the 96-well plate was read by an ELISA reader at 550 nm to get the absorbance density values. The IC50 values of death cell lines were calculated accordingly.
as §5

[7] = molecular target: human Golgi α-mannosidase II (α-hGMII) (Homo sapiens (Human), UniProt Q16706); experiment: Golgi α-mannosidase II (α-hGMII) activity assay, 4-MU-α-D-mannopyranoside substrate; assay type: biochemical; details: for IC50: pH 7.0, 37° C., 2 h; for Selectivity Index (SI): selectivity toward α-hGMII than α-hLM
Experimental: (§7) Compounds were diluted to give the final concentration of 100 μM and mixed with 4-MU-α-D-mannopyranoside as substrate and human Golgi α-mannosidase II in phosphate buffer (0.1 M Sodium phosphate dibasic, pH 7.0) or human lysosomal α-mannosidase in citric phosphate buffer (0.1 M Sodium phosphate monobasic monohydrate, 0.5 mM citric acid monohydrate, pH 4.6). The assay was carried out at 37° C. for a certain time (1 h for α-hLM, 2 h for α-hGMII). Stop solution (0.5 M K2CO3(aq), pH 10.8) was then added to the reactions and the fluorescence was determined at 355 nm excitation and 460 nm emission (SpectraMax M5, Molecular Devices). Inhibition was performed as relative enzyme activity to control. The active compounds were selected for libraries preparation and further tested at lower concentration to determine their IC50 values. The assays performed in 384-wells of the microtiter plates.

HepG2 cells [8] = experiment: Anti-proliferative activity assay (MTT); assay type: cell-based, human; details: 72 h
Experimental: as §3, §4, §6

PANC-1 cells [9] = experiment: Anti-proliferative activity assay (MTT); assay type: cell-based, human; details: 72 h
Experimental: as §3, §4, §6

Huh7 cells [10] = experiment: Anti-proliferative activity assay (MTT); assay type: cell-based, human; details: 72 h
Experimental: as §3, §4, §6

[11] = molecular target: human lysosomal α-mannosidase (α-hLM) (Homo sapiens (Human), UniProt O00754); experiment: α-Mannosidase (α-hLM) activity assay, 4-MU-α-D-mannopyranoside substrate; assay type: biochemical; details: pH 4.6, 37° C., 1 h
Experimental: as §7

Huh7 xenograft tumors = experiment: Human hepatocarcinoma (HCC) Huh7 cells xenograft animal model; assay type: in vivo, NOD-SCID mice; details: 30 mg/kg i.p., twice a week
Excerpt: A total of 34 NOD-SCID mice to (5- to 6-week-old) were maintained in micro-isolator units on a standard laboratory diet. Animals were housed under humidity- and temperature-controlled conditions and the light/dark cycle was set at 12-hour intervals, maintained under specified and opportunistic pathogen-free conditions. Mice were quarantined at least 1 week before experimental manipulation
as §2, with “weighted. […]” for “weighted.”

Huh7 cells [12] = details: Data from Int. J. Med. Sci. 2017, 14, 523; cited from earlier work
HepG2 cells [13] = details: Data from Int. J. Med. Sci. 2017, 14, 523; cited from earlier work

Chain of human Golgi α-mannosidase II (α-hGMII) (Q16706 whole entry): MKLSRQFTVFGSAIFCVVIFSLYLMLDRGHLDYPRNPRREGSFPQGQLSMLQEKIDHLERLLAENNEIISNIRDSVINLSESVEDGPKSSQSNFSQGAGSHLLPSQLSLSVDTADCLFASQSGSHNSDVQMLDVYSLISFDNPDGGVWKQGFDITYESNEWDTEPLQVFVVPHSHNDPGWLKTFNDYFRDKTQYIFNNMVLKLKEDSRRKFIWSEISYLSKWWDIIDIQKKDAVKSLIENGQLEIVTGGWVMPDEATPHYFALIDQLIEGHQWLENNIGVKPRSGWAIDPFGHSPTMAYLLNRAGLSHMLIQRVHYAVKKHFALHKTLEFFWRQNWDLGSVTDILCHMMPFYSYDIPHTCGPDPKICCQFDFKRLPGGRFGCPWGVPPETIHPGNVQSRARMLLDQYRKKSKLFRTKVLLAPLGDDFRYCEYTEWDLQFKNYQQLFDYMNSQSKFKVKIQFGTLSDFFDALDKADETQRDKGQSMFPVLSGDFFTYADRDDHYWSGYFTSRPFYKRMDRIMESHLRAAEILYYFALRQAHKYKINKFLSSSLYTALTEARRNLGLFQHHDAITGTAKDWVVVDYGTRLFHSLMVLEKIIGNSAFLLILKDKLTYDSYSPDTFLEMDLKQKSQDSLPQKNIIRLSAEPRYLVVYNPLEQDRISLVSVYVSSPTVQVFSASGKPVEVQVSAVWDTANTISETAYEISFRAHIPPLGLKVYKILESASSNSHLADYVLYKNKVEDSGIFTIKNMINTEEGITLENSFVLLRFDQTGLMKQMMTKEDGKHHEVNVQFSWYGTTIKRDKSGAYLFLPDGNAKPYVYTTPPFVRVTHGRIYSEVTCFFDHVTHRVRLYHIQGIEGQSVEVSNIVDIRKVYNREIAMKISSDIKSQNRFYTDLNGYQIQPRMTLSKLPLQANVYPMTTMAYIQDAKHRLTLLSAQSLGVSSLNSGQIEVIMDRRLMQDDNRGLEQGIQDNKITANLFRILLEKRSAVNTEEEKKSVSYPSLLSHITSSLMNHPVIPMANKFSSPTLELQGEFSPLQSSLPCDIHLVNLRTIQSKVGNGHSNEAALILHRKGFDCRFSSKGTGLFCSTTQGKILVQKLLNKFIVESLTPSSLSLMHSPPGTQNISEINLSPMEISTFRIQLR
Chain of human lysosomal α-mannosidase (α-hLM) (O00754 50-1011): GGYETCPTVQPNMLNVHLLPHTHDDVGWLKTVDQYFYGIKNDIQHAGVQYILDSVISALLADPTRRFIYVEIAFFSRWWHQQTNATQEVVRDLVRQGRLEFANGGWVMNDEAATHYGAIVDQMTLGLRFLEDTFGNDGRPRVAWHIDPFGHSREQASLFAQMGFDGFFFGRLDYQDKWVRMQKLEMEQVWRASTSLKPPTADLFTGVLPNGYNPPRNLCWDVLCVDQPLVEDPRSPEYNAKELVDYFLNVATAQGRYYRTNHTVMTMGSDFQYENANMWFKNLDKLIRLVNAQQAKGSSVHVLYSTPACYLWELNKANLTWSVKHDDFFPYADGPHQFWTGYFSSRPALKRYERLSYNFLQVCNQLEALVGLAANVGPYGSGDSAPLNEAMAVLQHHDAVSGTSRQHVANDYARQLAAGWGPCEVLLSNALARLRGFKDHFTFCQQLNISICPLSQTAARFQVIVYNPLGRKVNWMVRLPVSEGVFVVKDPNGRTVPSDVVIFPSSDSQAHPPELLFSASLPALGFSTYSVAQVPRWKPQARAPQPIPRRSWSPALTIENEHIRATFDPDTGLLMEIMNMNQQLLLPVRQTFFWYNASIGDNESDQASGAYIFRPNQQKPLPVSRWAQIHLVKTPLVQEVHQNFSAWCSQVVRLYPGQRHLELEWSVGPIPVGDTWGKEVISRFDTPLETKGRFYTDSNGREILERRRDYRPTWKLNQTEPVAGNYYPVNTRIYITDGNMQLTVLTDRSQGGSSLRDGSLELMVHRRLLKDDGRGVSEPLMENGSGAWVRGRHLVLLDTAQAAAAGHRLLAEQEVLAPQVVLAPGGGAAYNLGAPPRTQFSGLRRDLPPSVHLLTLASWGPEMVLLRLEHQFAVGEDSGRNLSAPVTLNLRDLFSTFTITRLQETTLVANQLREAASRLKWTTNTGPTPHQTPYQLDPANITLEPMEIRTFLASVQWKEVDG

Compound	BUN [3]	CRE [3]	TBIL [3]	IC50 [7]	Selectivity Index (SI) [7]	IC50 [11]	ALT [3]	AST [3]	other results
O[C@H]1[C@H]2[C@H](O)CCCN2C[C@H]1O [Swainsonine, swainsonine, reference compound]				40 nM	2				
COc1cccc2c1C(=O)c1c(O)c3c(c(O)c1C2=O)C[C@@](O)(C(=O)CO)C[C@@H]3O[C@H]1C[C@H](N)[C@H](O)[C@H](C)O1 [Doxorubicin, doxorubicin, reference compound]									IC50 (MDA-MB-231 cells; Homo sapiens, MDA-MB-231, 48 h): 1300 to 3000 nM
CNC(=O)c1cc(Oc2ccc(NC(=O)Nc3ccc(Cl)c(C(F)(F)F)c3)cc2)ccn1 [Sorafenib, sorafenib, reference compound]	23 ± 2.53 mg/dL	0.35 ± 0.19 mg/dL	0.73 ± 0.32 mg/dL				61.33 ± 54.45 U/L	135.33 ± 90.76 U/L	signs of harm or decreased body weight (Huh7 xenograft tumors): none of the mice injected with ACK900-ACK902 or sorafenib exhibited signs of harm or decreased body weight; tumor volume vs control (Huh7 xenograft tumors; P<0.05): Significant reduction; serious side effects including hepatoxicity and nephrotoxicity [3]: no serious side effects including hepatoxicity and nephrotoxicity were observed; IC50 (Huh7 cells [12]): 5.97 µM; IC50 (HepG2 cells [13]): 7.42 µM
O=C(NC[C@@H]1[C@@H](O)[C@@H](O)[C@H]2[C@H](O)CCCN21)c1ccc(-c2ccccc2)cc1 [ACK903]				190 nM	3.4	650 nM			

Continued, in another order:

BUN [3]	CRE [3]	TBIL [3]	IC50 [7]	Selectivity Index (SI) [7]	IC50 [11]	Compound	ALT [3]	AST [3]	other results
23.87 ± 4.30 mg/dL	0.43 ± 0.11 mg/dL	0.9 ± 0.56 mg/dL	1600 nM	4.3	6800 nM	CCC[C@H]1CC[C@H](c2ccc(C(=O)NC[C@@H]3[C@@H](O)[C@@H](O)[C@H]4[C@H](O)CCCN43)cc2)CC1 [ACK902]	64.42 ± 57.49 U/L	250 ± 182.44 U/L	migratory capability (PANC-1 cells [1]): remarkably decreased; migratory capability (Huh7 cells [2]): remarkably decreased; IC50 (H1975 cells): 11.5 µM; IC50 (MDA-MB-231 cells; 48 h): 9900 nM; invasive capability (PANC-1 cells [4]): remarkably decreased; invasive capability (Huh7 cells [5]): remarkably decreased; IC50 [6]: 0.3 to 19.1 µM; IC50 (HepG2 cells [8]): 14.5 µM; IC50 (PANC-1 cells [9]): 1600 nM; IC50 (Huh7 cells [10]): 3700 nM
			1300 nM	1.1	1500 nM	O[C@@H]1[C@H](O)[C@@H](CNC(=S)Nc2ccccc2)N2CCC[C@@H](O)[C@H]12 [ACK905]			
21.87 ± 3.77 mg/dL	0.47 ± 0.18 mg/dL	0.64 ± 0.37 mg/dL	1000 nM		21500 nM	CCCCCC[C@H]1CC[C@H](c2ccc(NC(=S)NC[C@@H]3[C@@H](O)[C@@H](O)[C@H]4[C@H](O)CCCN43)cc2)CC1 [ACK901]	74.85 ± 82.13 U/L	173.85 ± 95.67 U/L	migratory capability (PANC-1 cells [1]): remarkably decreased; migratory capability (Huh7 cells [2]): remarkably decreased; IC50 (H1975 cells): 7.7 µM; IC50 (MDA-MB-231 cells; 48 h): 1000 nM; invasive capability (PANC-1 cells [4]): remarkably decreased; invasive capability (Huh7 cells [5]): remarkably decreased; IC50 [6]: 0.3 to 19.1 µM; IC50 (HepG2 cells [8]): 1.8 µM; IC50 (PANC-1 cells [9]): 300 nM; IC50 (Huh7 cells [10]): 1300 nM
			800 nM	1.2	950 nM	COc1ccc(NC(=S)NC[C@@H]2[C@@H](O)[C@@H](O)[C@H]3[C@H](O)CCCN32)cc1 [ACK904]			
